≈ marks a conversion by molar mass, not a printed value. Where “and” joins values, the source holds several entries; their conditions need not be identical. Equal entries are not always repeated.
Columns and labels:
S. pneumoniae, UC ®9912 = test: In vitro MIC by agar dilution, S. pneumoniae; type: cell-based; details: Streptococcus pneumoniae, UC9912, read-out: In vitro Activities: Minimum Inhibitory Concentrations, S. pneumoniae, UC 9912
Excerpt: The oxazolidinone antibacterial agents of this invention have useful activity against a variety of organisms. The in vitro activity of compounds of this invention can be assessed by standard testing procedures such as the determination of minimum inhibitory concentration (MIC) by agar dilution as desribed in "Methods for Dilution Antimicrobial Susceptibility Tests for Bacteria That Grow Aerobically" (MFT) published January 1983 by the National Committee for Clinical Laboratory Standards, 771 East Lancaster Avenue, Villanova, Pa. 19084, USA. The activity of selected compounds of this invention against Staphylococcus aureus and Streptococcus pneumoniae are shown in Table 1.

S. aureus, UC ®9213 = test: In vivo Murine Assay procedure, ED50 (survival of infected mice); set-up: species or system Staphylococcus aureus; female mice
Method: Antimicrobial activity was tested in vivo using the Murine Assay procedure. Groups of female mice (six mice of 18-20 grams each) were injected intraperitoneally with bacteria which were thawed just prior to use and suspended in brain heart infusion with 4% brewers yeast UC9213 (Staphylococcus aureus) or brain heart infusion (Streptococcus species). Antibiotic treatment at six dose levels per drug was administered one hour and five hours after infection by either oral intubation or subcutaneous ("subcut.") routes. Survival was observed daily for six days. ED50 values based on mortality ratios were calculated using probit analysis. The subject compounds were compared against a well-known antimicrobial (Vancomycin) as a control.

In the case of CN[C@H](CC(C)C)C(=O)N[C@H]1C(=O)N[C@@H](CC(N)=O)C(=O)N[C@H]2C(=O)N[C@H]3C(=O)N[C@H](C(=O)N[C@H](C(=O)O)c4cc(O)cc(O)c4-c4cc3ccc4O)[C@H](O)c3ccc(c(Cl)c3)Oc3cc2cc(c3O[C@@H]2O[C@H](CO)[C@@H](O)[C@H](O)[C@H]2O[C@H]2C[C@](C)(N)[C@H](O)[C@H](C)O2)Oc2ccc(cc2Cl)[C@H]1O [Vancomycin], the MIC (S. pneumoniae, UC ®9912) is reported as 0.5 µg/mL (≈ 0.345 µM), the ED50 (S. aureus, UC ®9213; Staphylococcus aureus, UC9213, 144 h, read-out: Control, ED50) is reported as 2.2 mg/kg and the “Control, ED50” value (S. aureus, UC ®9213; vancomycin control run beside the Example of the same line, mice infected i.p. with S. aureus UC 9213, treatment 1 h and 5 h after infection, oral or subcutaneous, 8640 min) is reported as 2.4 mg/kg and 2.0 mg/kg and 1.2 mg/kg.

From patent US6124334A, “Hetero-aromatic ring substituted phenyloxazolidinone antimicrobials” (Pharmacia & Upjohn Company, priority 1998, dated 2000)
